SMILES strings stand for the structures.

This assay addresses T1, Dimer of Gag-Pol polyprotein [501-599] (Human immunodeficiency virus 1, UniProt P03367).
T1 construct: 501-599
In words: Protease Inhibition Assay. Particulars: pH 4.7; 30 °C. The procedure:
HIV-1 protease activity was measured by a continuous fluorometric assay using the internally quenched fluorogenic substrate DABCYL-Ser-Gln-Asn-Tyr-Pro-Ile-Val-Gln-EDANS. The proteolytic activity can be monitored by the increase in fluorescence intensity, and the protease products were analyzed by HPLC.
As a reminder, the Ki is the equilibrium dissociation constant of an inhibitor or competing ligand from its target. In turn, `Cc1ccc(S(=O)(=O)N(CC(C)C)[C@@H](CCCCNC(=O)/C=C/c2ccccc2)C(=O)O)cc1` [(2S)-2-[(4-methylbenzene)(2-methylpropyl)sulfonamido]-6-[(2E)-3-phenylprop-2-enamido]hexanoic acid] came in with a Ki of more than 0.3 µM.

The molecule `Cc1ccc(S(=O)(=O)N(CC(C)C)[C@@H](CCCCNC(=O)c2ccccc2)C(=O)O)cc1` [(2S)-2-[(4-methylbenzene)(2-methylpropyl)sulfonamido]-6-(phenylformamido)hexanoic acid] came in with an inhibition constant Ki of more than 0.3 µM.

Regarding `Cc1ccc(S(=O)(=O)N(CC(C)C)[C@@H](CCCCNC(=O)OCc2ccccc2)C(=O)O)cc1` [(2S)-6-{[(benzyloxy)carbonyl]amino}-2-[(4-methylbenzene)(2-methylpropyl)sulfonamido]hexanoic acid], the Ki was more than 0.3 µM.

In turn, `Cc1ccc(S(=O)(=O)N(CC(C)C)[C@@H](CCCCNC(=O)C(Cc2ccccc2)C(C)(C)C)C(=O)O)cc1` (stereo partly drawn) [(2S)-6-(2-benzyl-3,3-dimethylbutanamido)-2-[(4-methylbenzene)(2-methylpropyl)sulfonamido]hexanoic acid] returned a Ki of more than 0.3 µM.

In turn, `Cc1ccc(S(=O)(=O)N(CC(C)C)[C@@H](CCCCNC(=O)C2CC2c2ccccc2)C(=O)O)cc1` (stereo partly drawn) [(2S)-2-[(4-methylbenzene)(2-methylpropyl)sulfonamido]-6-[(2-phenylcyclopropyl)formamido]hexanoic acid] registered a Ki of more than 0.3 µM.

Take `Cc1ccc(S(=O)(=O)N(CC(C)C)[C@@H](CCCCNC(=O)CCCc2ccccc2)C(=O)O)cc1` [(2S)-2-[(4-methylbenzene)(2-methylpropyl)sulfonamido]-6-(4-phenylbutanamido)hexanoic acid]: the Ki is more than 0.3 µM.

For the molecule `Cc1ccc(S(=O)(=O)N(CC(C)C)[C@@H](CCCCNC(=O)Cc2ccccc2)C(=O)O)cc1` [(2S)-2-[(4-methylbenzene)(2-methylpropyl)sulfonamido]-6-(1-phenylacetamido)hexanoic acid], the inhibition constant Ki was more than 0.3 µM.

The values above are taken from BindingDB's records for doi:10.1016/j.bmcl.2003.09.058 (Pharmacor, 2003).
